For eight molecules, GI50 and TGI results are on record in PubChem BioAssay (NCI).

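48-hour exposure; five concentrations; linearly interpolated endpoints. The concentration for 50% growth inhibition is given as GI50. At the TGI there is no net growth.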 Bounds are passed on as bounds.

What all share (experiment): inhibition of tumour cell growth, NCI panel, 48 h
Experiment [1] relates to U251 CNS.
For experiment [2], the system named is HS 578T breast.
For experiment [3], the system named is T-47D breast.
Experiment [4] has as its system NCI-H522 lung.
Experiment [5] has as its system LOX IMVI melanoma.
The subject of experiment [6] is PC-3 prostate.
The subject of experiment [7] is UACC-62 melanoma.
Experiment [8] has as its system OVCAR-5 ovarian.
In experiment [9] the test system is OVCAR-4 ovarian.
In experiment [10] the test system is UACC-257 melanoma.

Turning to `Cc1cc(=O)oc2cc(OCCn3c(C)nn(-c4ccc(Cl)cc4)c3=O)ccc12`, the GI50 in experiment [1] is 4.18 µM; in experiment [2] it was 2.82 µM; in [3], 7.55 µM; in experiment [4] it was 3.85 µM; in experiment [5], 4.83 µM; in experiment [6], 8.13 µM. Further, the GI50 in experiment [7] was 1.99 µM; in experiment [8], 21.9 µM. Further, the TGI in [1] was 72.3 µM; in [2], over 100 µM; in experiment [3], over 100 µM; in [4] it was 33.2 µM; in [5], over 100 µM; in experiment [6] it was over 100 µM. For the same molecule, the TGI in [7] and in [8] was over 100 µM in each case.
Take `O=C(Nc1cc(S(=O)(=O)c2ccc(Cl)cc2)ccc1Cl)c1cc(I)cc(I)c1O`: the GI50 was 15.3 µM in experiment [1]; 17.8 µM in [2]; 11.8 µM in [4]; 17.2 µM in experiment [9]; 18.2 µM in experiment [5]; 18.4 µM in [10]. For the same molecule, the GI50 is 14.4 µM in experiment [6], 4.2 µM in experiment [7] and 18.3 µM in [8]. Moreover, the TGI in experiment [1] was 30.8 µM; in [2], 47.6 µM; in experiment [4] it was 26.6 µM; in [9], 33.5 µM; in experiment [5] it was 38.7 µM; in experiment [10], 42.1 µM. In addition, the TGI in [6] is 28.6 µM; in experiment [7] it was 15.5 µM; in experiment [8], 38.2 µM.
With `NC(=O)c1cc(I)ccc1NC(=O)COc1ccccc1`, the GI50 in experiment [1] was 0.365 µM; in experiment [2] it was 0.462 µM; in experiment [3], 0.556 µM; in [4], 0.508 µM; in experiment [5] it was 1.01 µM; in experiment [10], 41.7 µM. For the same molecule, the GI50 is 0.471 µM in [6], 0.814 µM in experiment [7] and 2.24 µM in experiment [8]. For the same molecule, the TGI in experiment [1] is 10.8 µM; in experiment [2], 36.1 µM; in experiment [3] it was over 100 µM; in experiment [4], 12.9 µM; in experiment [5], over 100 µM; in experiment [10], over 100 µM. The TGI in experiment [6], in experiment [7] and in [8] was over 100 µM throughout.
As to `CCOCNc1ccc(N2C(=O)/C(=C/c3ccc(N(CC)CC)cc3)N=C2c2ccccc2)cc1`, the GI50 in experiment [1] was 3.85 µM; in experiment [2] it was 17 µM; in [3] it was 84 µM; in [9] it was over 100 µM; in experiment [5] it was 2.48 µM; in [10], over 100 µM. In addition, the GI50 is 5.83 µM in experiment [6], 3.93 µM in [7] and over 100 µM in experiment [8]. Besides, the TGI in [1] was 33 µM; in experiment [2], over 100 µM; in experiment [3], over 100 µM; in [9] it was over 100 µM; in experiment [5], over 100 µM; in experiment [10], over 100 µM. For the same molecule, the TGI in [6] was over 100 µM; in experiment [7], 37.1 µM; in experiment [8] it was over 100 µM.
On to `CC1(C)C2CCC13C(=O)C1OC3(C2)C2C(=O)c3c(O)cccc3C(=O)C12` (stereo unspecified), for which the GI50 is 0.64 µM in [1]; 0.988 µM in [2]; 0.906 µM in experiment [3]; 3.2 µM in [4]; 0.792 µM in experiment [10]; 0.835 µM in [6]. Further, the GI50 in experiment [7] was 0.2 µM; in experiment [8] it was 4.25 µM. Also, the TGI worked out at 1.81 µM in [1]; 2.86 µM in [2]; 6.58 µM in [3]; 10.1 µM in [4]; 2.43 µM in experiment [10]; 3.09 µM in experiment [6]. Moreover, the TGI in [7] was found to be 0.403 µM; in experiment [8], 13.7 µM.
Turning to `COc1ccc(NC(=O)c2sc3nc4c(cc3c2N)CCCC4)cc1`, the GI50 is 0.652 µM in experiment [1]; 0.567 µM in experiment [2]; 0.547 µM in [3]; 0.234 µM in experiment [4]; 1.98 µM in experiment [9]; 0.686 µM in experiment [5]. The GI50 in [6] was 0.822 µM; in experiment [7], 0.352 µM; in experiment [8], 7.28 µM. In addition, the TGI in experiment [1] was over 100 µM; in [2] it was over 100 µM; in experiment [3], 96.9 µM; in [4], 0.772 µM; in experiment [9] it was over 100 µM; in [5] it was over 100 µM. Further, the TGI in [6], in experiment [7] and in experiment [8] was over 100 µM each time.
Consider `CCC(=O)c1cc([N+](=O)[O-])c(Br)s1`, for which the GI50 in experiment [1] is 1.85 µM; in experiment [2], 19.5 µM; in [4], 0.904 µM; in experiment [9], 1.86 µM; in [5], 1.88 µM; in experiment [10], 1.21 µM. Moreover, the GI50 in experiment [6] was 10.3 µM; in [7], 14.4 µM; in [8], 16.6 µM. Besides, the TGI stood at 4.02 µM in experiment [1]; 85 µM in experiment [2]; 2.2 µM in experiment [4]; 3.65 µM in [9]; 3.46 µM in experiment [5]; 2.52 µM in [10]. The TGI amounted to 24.4 µM in experiment [6], 28.8 µM in experiment [7] and 32.1 µM in experiment [8].
Take `NC(=O)C(=O)n1ncc(Cl)c(Cl)c1=O`: the TGI is over 60.3 µM in experiment [1]; over 100 µM in experiment [2]; over 100 µM in experiment [3]; 20.6 µM in [4]; 46.9 µM in experiment [9]; 56.6 µM in experiment [5]. In addition, the figures for the TGI in experiment [10], in [7] and in experiment [8] were 58.4 µM, 54.4 µM and 63.1 µM, respectively.
